For test [1], the system named is U-937. As to the kind of experiment: Induction of cell cycle arrest in human U-937 assessed as decrease accumulation of cells in G1 phase at 5 uM incubated for 24 hrs by FACS analysis. The class given is functional, cell-based.
Test [2] concerns HCT-116. Kind of test: Induction of cell cycle arrest in human HCT-116 assessed as accumulation of cells in G2/M phase at 1 to 5 uM incubated for 24 hrs by FACS analysis relative to SAHA. In kind it is functional. Particulars: dose 1-5 µM. (Flow cytometry measures light scatter and fluorescence of single cells or particles in a stream.)
Test [3] concerns U-937. Kind of test: Induction of apoptosis in human U-937 cells assessed as increased p21 protein expression level at 1 to 5 uM incubated for 24 hrs by immunoblotting analysis. The class given is functional, cell-based. Particulars: dose 1-5 µM. On the technique in general: In western blotting, separated proteins are transferred to a membrane and probed.
Test [4] has as its system U-937. As to the kind of experiment: Cytotoxicity against human U-937 cells assessed as cell death at 1 to 5 uM incubated for 24 hrs by PI staining based FACS analysis relative to control. Particulars: dose 1-5 µM. The class given is functional.
The subject of test [5] is HCT-116. Kind of test: Cytotoxicity against human HCT-116 cells assessed as reduction in cell death at 1 uM incubated for 24 hrs by PI staining based FACS analysis. In kind it is functional.
Test [6] has as its system U-937. As to the kind of experiment: Induction of cell cycle arrest in human U-937 assessed as increase accumulation of cells in G2/M phase at 1 to 5 uM incubated for 24 hrs by FACS analysis. The class given is functional, cell-based. Particulars: dose 1-5 µM.
For test [7], the target named is T1, Histone deacetylase (Homo sapiens) (UniProt Q13547+O15379+Q9UBN7+Q92769+Q9UQL6+Q8WUI4+Q9BY41+Q96DB2+P56524+Q9UKV0+Q969S8). Kind of test: Inhibition of HDAC in human HCT-116 cells assessed as upregulation of acetyl alpha-tubulin level at 1 to 5 uM incubated for 24 hrs by immunoblotting analysis. In kind it is cell-based. Particulars: dose 1-5 µM.
The subject of test [8] is HCT-116. As to the kind of experiment: Induction of apoptosis in human HCT-116 cells assessed as increased p21 protein expression level at 1 to 5 uM incubated for 24 hrs by immunoblotting analysis. In kind it is functional, cell-based. Particulars: dose 1-5 µM.
In test [9] the target is T1, Histone deacetylase (Homo sapiens). Kind of test: Inhibition of HDAC in human U-937 cells assessed as upregulation of acetyl alpha-tubulin level at 5 uM incubated for 24 hrs by immunoblotting analysis. In kind it is cell-based.
Test [10] concerns U-937. Kind of test: Induction of cell cycle arrest in human U-937 assessed as reduced accumulation of cells in S phase at 1 uM incubated for 24 hrs by FACS analysis. The class given is functional, cell-based.
The target in test [11] is Histone deacetylase. In kind it is subcellular, Homo sapiens, Nucleus. Particulars: hela.
Description: Inhibition of HDAC in human HeLa cell nuclear extract using Kac fluorogenic peptide as substrate containing residues 379-382 of p53 by fluorescence assay
For test [12], the system named is HCT-116. Kind of test: Cytotoxicity against human HCT-116 cells assessed as cell death at 5 uM incubated for 24 hrs by PI staining based FACS analysis relative to control. The class given is functional.
For test [13], the target named is T2, Protein deacetylase HDAC6 (Homo sapiens) (UniProt Q9UBN7).
T2 sequence (whole entry): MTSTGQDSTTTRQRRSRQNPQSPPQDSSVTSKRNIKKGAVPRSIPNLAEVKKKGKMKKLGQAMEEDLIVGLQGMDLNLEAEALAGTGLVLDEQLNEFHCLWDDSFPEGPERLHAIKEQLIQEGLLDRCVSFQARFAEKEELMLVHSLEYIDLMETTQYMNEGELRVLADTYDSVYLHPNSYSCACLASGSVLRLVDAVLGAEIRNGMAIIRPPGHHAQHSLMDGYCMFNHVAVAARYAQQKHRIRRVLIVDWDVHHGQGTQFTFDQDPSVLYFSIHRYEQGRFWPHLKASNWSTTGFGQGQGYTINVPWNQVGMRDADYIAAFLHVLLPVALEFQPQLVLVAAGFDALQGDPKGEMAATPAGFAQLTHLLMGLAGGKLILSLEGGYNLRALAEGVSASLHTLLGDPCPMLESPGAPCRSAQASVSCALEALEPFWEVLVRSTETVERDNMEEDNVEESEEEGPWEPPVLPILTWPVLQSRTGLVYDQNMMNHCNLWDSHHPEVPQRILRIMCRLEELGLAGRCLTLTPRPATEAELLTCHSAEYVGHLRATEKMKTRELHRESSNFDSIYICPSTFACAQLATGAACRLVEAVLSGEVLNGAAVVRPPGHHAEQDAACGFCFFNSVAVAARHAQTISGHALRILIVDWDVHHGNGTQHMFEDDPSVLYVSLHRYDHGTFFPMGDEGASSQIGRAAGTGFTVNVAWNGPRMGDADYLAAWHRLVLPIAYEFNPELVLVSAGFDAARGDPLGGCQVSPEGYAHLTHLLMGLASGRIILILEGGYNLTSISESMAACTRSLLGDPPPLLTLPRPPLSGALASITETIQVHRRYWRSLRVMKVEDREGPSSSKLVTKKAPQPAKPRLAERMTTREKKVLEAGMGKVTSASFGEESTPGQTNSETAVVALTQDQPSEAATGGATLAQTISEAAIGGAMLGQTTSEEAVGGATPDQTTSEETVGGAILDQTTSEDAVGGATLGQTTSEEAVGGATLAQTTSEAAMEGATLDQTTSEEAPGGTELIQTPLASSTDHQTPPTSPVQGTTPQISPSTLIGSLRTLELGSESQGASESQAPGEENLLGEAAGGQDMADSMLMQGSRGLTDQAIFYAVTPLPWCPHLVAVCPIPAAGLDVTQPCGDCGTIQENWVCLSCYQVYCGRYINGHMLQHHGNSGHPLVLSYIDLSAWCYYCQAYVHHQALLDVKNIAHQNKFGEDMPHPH
As to the kind of experiment: Inhibition of HDAC6 (unknown origin) at 10 uM using fluorogenic peptide as substrate pre-incubated for 15 mins followed by substrate addition incubated for 30 mins by fluorescence assay. Particulars: time 45.0 min.

Test [14] concerns the target T1, Histone deacetylase (Homo sapiens). Kind of test: Inhibition of HDAC in human U-937 cells assessed as upregulation of histone H3 acetylation at lysine 14 residue at 5 uM incubated for 24 hrs by immunoblotting analysis. In kind it is cell-based.
Test [15] concerns the target T3, Histone deacetylase 1 (Homo sapiens, UniProt Q13547). Kind of test: Inhibition of HDAC1 (unknown origin) at 10 uM using fluorogenic peptide as substrate pre-incubated for 15 mins followed by substrate addition incubated for 30 mins by fluorescence assay relative to control. Particulars: time 45.0 min.
The test system of test [16] is HCT-116. As to the kind of experiment: Induction of cell cycle arrest in human HCT-116 assessed as decrease accumulation of cells in S phase at 1 to 5 uM incubated for 24 hrs by FACS analysis. Particulars: dose 1-5 µM. In kind it is functional, cell-based.
The target of test [17] is T1, Histone deacetylase (Homo sapiens). Kind of test: Inhibition of HDAC in human HCT-116 cells assessed as upregulation of histone H3 acetylation at lysine 14 residue at 1 uM incubated for 24 hrs by immunoblotting analysis. The class given is cell-based.
Test [18] has the same target. As to the kind of experiment: Inhibition of HDAC in human U-937 cells assessed as upregulation of histone H3 acetylation at lysine 14 residue at 1 uM incubated for 24 hrs by immunoblotting analysis. In kind it is cell-based.
Test [19] concerns U-937. Kind of test: Induction of cell cycle arrest in human U-937 assessed as decrease accumulation of cells in G1 phase at 1 to 5 uM incubated for 24 hrs by FACS analysis. In kind it is functional, cell-based. Particulars: dose 1-5 µM.
The test system of test [20] is HCT-116. As to the kind of experiment: Induction of cell cycle arrest in human HCT-116 assessed as decrease accumulation of cells in G1 phase at 1 to 5 uM incubated for 24 hrs by FACS analysis. Particulars: dose 1-5 µM. The class given is functional, cell-based.
For test [21], the target named is T3, Histone deacetylase 1. As to the kind of experiment: Inhibition of HDAC1 (unknown origin) using fluorogenic peptide as the substrate containing residues 379-382 of p53 pre-incubated for 15 mins followed by substrate addition incubated for 30 mins by multimode plate reader.
Test [22] has as its system U-937. As to the kind of experiment: Induction of cell cycle arrest in human U-937 assessed as decrease accumulation of cells in S phase at 1 to 5 uM incubated for 24 hrs by FACS analysis. In kind it is functional, cell-based. Particulars: dose 1-5 µM.

Drawing on ChEMBL document CHEMBL5365438, “2-Substituted 1,5-benzothiazepine-based HDAC inhibitors exert anticancer activities on human solid and acute myeloid leukemia cell lines” (Bioorg Med Chem, 2023), this text covers Activity, IC50 and inhibition for nine compounds.

Each structure is given as a SMILES string. The source made the active and inactive calls. The calls are words filed in the database; no cut-off is given here.

A word on the IC50: it is the point on the concentration scale where inhibition reaches its midpoint. What is called inhibition is how much of the control response was suppressed. Higher therefore signals a response far below the control.

T3 sequence (Q13547 whole entry): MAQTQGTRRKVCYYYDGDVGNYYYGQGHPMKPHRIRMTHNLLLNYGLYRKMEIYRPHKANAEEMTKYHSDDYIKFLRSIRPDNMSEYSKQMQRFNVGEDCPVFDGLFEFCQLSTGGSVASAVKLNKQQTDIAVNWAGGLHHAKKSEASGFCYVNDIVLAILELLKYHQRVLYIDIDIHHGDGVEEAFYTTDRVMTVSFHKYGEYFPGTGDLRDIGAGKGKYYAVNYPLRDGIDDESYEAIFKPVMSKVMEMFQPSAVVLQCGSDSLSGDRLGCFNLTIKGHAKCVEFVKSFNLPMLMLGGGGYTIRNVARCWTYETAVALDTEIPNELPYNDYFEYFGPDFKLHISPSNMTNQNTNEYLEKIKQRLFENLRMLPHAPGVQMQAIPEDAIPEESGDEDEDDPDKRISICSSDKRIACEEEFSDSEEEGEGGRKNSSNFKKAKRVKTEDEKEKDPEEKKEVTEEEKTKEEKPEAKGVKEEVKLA

`O=C(CCCCCN1C(=O)C[C@H](c2ccc(Cl)c(Cl)c2)Sc2ccccc21)NO`: the result in test [1], in test [2], in test [3], in test [4], in [5] and in test [6] was Active. Also, the outcome in [7], in test [8], in test [9] and in test [10] was Active. The compound also yielded an IC50 in [11] of 274.4 nM. For the same compound, in test [12], the Activity is reported as 22%.

Turning to `O=C(CCCCCCC(=O)Nc1ccc([C@H]2O[C@@H](CSc3nc(-c4ccccc4)c(-c4ccccc4)o3)C[C@@H](c3ccc(CO)cc3)O2)cc1)NO`, the inhibition in test [13] turned out to be 94.3%.

As to `Cc1ccc(C2CC(=O)N(CCCCCC(=O)NO)c3ccccc3S2)cc1` (racemic), the result in test [1], in test [2], in test [14], in [3], in test [4] and in test [5] was Active. In addition, the outcome in test [6], in test [7], in test [8], in test [9] and in test [10] was Active. In addition, the IC50 in test [11] turned out to be 123.4 nM. For the same compound, the Activity in test [12] came out at 22%.

Consider `Cc1ccc(C2CC(=O)N(CCCCCC(=O)NO)c3ccccc3S2(=O)=O)cc1` (racemic), for which the inhibition in [15] worked out at 93.5%; in [13] it was 98.6%. In addition, the result in test [16], in test [2], in [17], in [14], in [3] and in test [18] was Active. The outcome in test [19], in [6], in test [7], in [8], in test [20] and in test [9] was Active. Also, the result in [22] was Active. Further, in test [4], the Activity is listed as about 6%. The results for the IC50 in test [21] and in test [11] were 175 nM and 42.2 nM, respectively.

Turning to `O=C(CCCCCN1C(=O)CC(c2c3ccccc3cc3ccccc23)Sc2ccccc21)NO` (racemic), the result in [1], in test [2], in [14], in [3], in [4] and in [5] was Active. In addition, the result in test [6], in [7], in test [8], in test [9] and in test [10] was Active. In test [11], this compound yielded an IC50 of 246 nM. In test [12], the Activity came out at 22%.

Turning to `O=C(CCCCCN1C(=O)CC(c2ccccc2Cl)Sc2ccccc21)NO` (racemic), the result in test [1], in test [2], in test [14], in test [3], in test [4] and in test [5] was Active. Further, the outcome in [6], in test [7], in test [8], in [9] and in test [10] was Active. The IC50 in [11] worked out at 109.4 nM. In test [12], the Activity is 22%.

In the case of `O=C(CCCCCN1C(=O)CC(c2cccc3ccccc23)Sc2ccccc21)NO` (racemic), the result in [1], in test [2], in test [14], in test [3], in test [18] and in test [4] was Active. Moreover, the outcome in test [5], in test [6], in test [7], in test [8], in [9] and in [10] was Active. Further, the IC50 in test [11] turned out to be 259.3 nM. In test [12], the Activity amounted to 22%.

On to `COc1ccc(C2CC(=O)N(CCCCCC(=O)NO)c3ccccc3S2)cc1` (racemic), for which the outcome in test [1], in test [14], in [3], in [4], in test [5] and in test [6] was Active. Besides, the outcome in [7], in [8], in test [9] and in test [10] was Active. Further, the Activity in test [2] was about 75%; in test [12] it was 22%. The IC50 in [11] is listed as 118.3 nM.

Consider `COc1ccc(C2CC(=O)N(CCCCCC(=O)NO)c3ccccc3S2(=O)=O)cc1` (racemic), for which the values for the inhibition in [15] and in test [13] were 94.2% and 95.8%, respectively. Besides, the outcome in test [16], in test [2], in test [17], in test [14], in [3] and in [18] was Active. Besides, the outcome in test [19], in test [6], in [7], in test [8], in test [20] and in test [9] was Active. The result in test [22] was Active. Moreover, in [4], the Activity was about 6%. Moreover, the 50% inhibitory concentration (IC50) worked out at 248 nM in [21] and 114.6 nM in [11].
